# Data from the supplement of paper PMC11208160.
# Experiment: recombinant barcode read abundance after kanamycin selection (control-corrected) (log10(CPM+1)); higher = more efficient recombination; sequences stand for … in AGTGCAGAGAAAATCGGCCAGTTTTCTCTGCCTGCAGTCCGCATGCCGT…AGATTTATGCAGCGGACTGCCTTTCTCCCAAAGTGATAAACCGGACAGTATCATGGACCGGTTTTCCCGGTAATCCGTATTTGCAAGGTTGGTTTCACT; site = the 11-nt target
# Procedure, shortened: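 Pooled oligos, each joining a target to an IS621 bridge RNA target-binding loop, were cloned and co-electroporated with a donor plasmid into E. coli. Selective plates carried chloramphenicol/ampicillin/kanamycin and 0.1 mM IPTG, while chloramphenicol/ampicillin LB agar served as control, with two replicates of each. Recombination efficiency rests on averaged, control-corrected counts per million of barcodes at recombinant junctions, shown as log10(CPM+1).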
# 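Further: IS621 recombinase and bridge RNA in Escherichia coli cells.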
row,Sequence,recombinant barcode read abundance (log10)
1,CAGTCCTCTTGGGTTCTAACCTGTTGCTG (site CCGTCCTCTCA),0.0321
2,CAGTGAACTTGGGTTCTAACCTGTTGCCT (site CAGTGAACTAG),1.55
3,CAGTGAACTTGGGTTCTAACCTGTTGCCT (site CCGTGAACTAG),0.181
4,CAGTGAACTTGGGTTCTAACCTGTTGCCT (site CGGTGAACTAG),0.0595
5,CAGTGAACTTGGGTTCTAACCTGTTGCCT (site CTGTGAACTAG),0.0273
6,CAGTGGACTTGGGTTCTAACCTGTTGCCT (site CAATGGACTAG),0.961
7,CAGTGGACTTGGGTTCTAACCTGTTGCCT (site CACTGGACTAG),0.101
8,CAGTGGACTTGGGTTCTAACCTGTTGCCT (site CAGTGGACTAG),2.04
9,CAGTGGACTTGGGTTCTAACCTGTTGCCT (site CATTGGACTAG),0.0477
10,CAGTTGTCTTGGGTTCTAACCTGTTGCCT (site AAGTTGTCTAC),0.0187
11,CAGTTGTCTTGGGTTCTAACCTGTTGCCT (site CAGTTGTCTAG),1.75
12,CATAATTCTTGGGTTCTAACCTGTTGCCT (site CATAATTCTAG),0.445
13,CATAATTCTTGGGTTCTAACCTGTTGCCT (site CATCATTCTAG),0
14,CATAATTCTTGGGTTCTAACCTGTTGCCT (site CATGATTCTAG),0.0188
15,CATAATTCTTGGGTTCTAACCTGTTGCCT (site CATTATTCTAG),0.0376
16,CATAGCGCTTGGGTTCTAACCTGTTGCCT (site AGCTTGCCTCT),0.0679
17,CATAGCGCTTGGGTTCTAACCTGTTGCCT (site CATAGCGCTAG),0.605
18,CATAGCTCTTGGGTTCTAACCTGTTGCCT (site AATAGCTCTAG),0.527
19,CATAGCTCTTGGGTTCTAACCTGTTGCCT (site CATAGCTCTAG),1.24
20,CATAGCTCTTGGGTTCTAACCTGTTGCCT (site GATAGCTCTAG),0.176
21,CATAGCTCTTGGGTTCTAACCTGTTGCCT (site TATAGCTCTAG),0.337
22,CATAGGCCTTGGGTTCTAACCTGTTGCAT (site CATAGACCTAT),0.23

row,Sequence,recombinant barcode read abundance (log10)
1,CATAGGCCTTGGGTTCTAACCTGTTGCAT (site CATAGCCCTAT),0.371
2,CATAGGCCTTGGGTTCTAACCTGTTGCAT (site CATAGGCCTAT),0.811
3,CATAGGCCTTGGGTTCTAACCTGTTGCAT (site CATAGTCCTAT),0.105
4,CATAGTCCTTGGGTTCTAACCTGTTGCAT (site CATAGACCTAT),0.213
5,CATAGTCCTTGGGTTCTAACCTGTTGCAT (site CATAGCCCTAT),0.884
6,CATAGTCCTTGGGTTCTAACCTGTTGCAT (site CATAGGCCTAT),0.0509
7,CATAGTCCTTGGGTTCTAACCTGTTGCAT (site CATAGTCCTAT),0.923
8,CATCCCTCTTGGGTTCTAACCTGTTGCTT (site CATCCCTCTAA),1.51
9,CATCCCTCTTGGGTTCTAACCTGTTGCTT (site CATCCGTCTAA),0.0576
10,CATCCGTCTTGGGTTCTAACCTGTTGCCT (site CATCCGACTAG),0.105
11,CATCCGTCTTGGGTTCTAACCTGTTGCCT (site CATCCGCCTAG),0.0457
12,CATCCGTCTTGGGTTCTAACCTGTTGCCT (site CATCCGGCTAG),0.131
13,CATCCGTCTTGGGTTCTAACCTGTTGCCT (site CATCCGTCTAG),1.21
14,CATCCTACTTGGGTTCTAACCTGTTGCCG (site CATCCTACTAT),0.0476
15,CATCCTACTTGGGTTCTAACCTGTTGCCG (site CATCCTACTCG),0.156
16,CATCCTACTTGGGTTCTAACCTGTTGCCT (site CATCCTACTAG),0.259
17,CATCCTACTTGGGTTCTAACCTGTTGCCT (site TCCAACTCTGT),0.153
18,CATCGGACTTGGGTTCTAACCTGTTGCTA (site CATCGGACTTA),0.834
19,CATCGGACTTGGGTTCTAACCTGTTGCTA (site CATTGTACTTA),0.347
20,CATCGGGCTTGGGTTCTAACCTGTTGCAG (site CATCGGGCTCT),1.43
21,CATCGGGCTTGGGTTCTAACCTGTTGCAG (site CCTCGGGCTCT),0.0832
22,CATCGGGCTTGGGTTCTAACCTGTTGCAG (site CGTCGGGCTCT),0.00527

row,Sequence,recombinant barcode read abundance (log10)
1,CATCGGGCTTGGGTTCTAACCTGTTGCAG (site CTTCGGGCTCT),0.292
2,CATGATGCTTGGGTTCTAACCTGTTGCCT (site CAAGATGCTAG),0.256
3,CATGATGCTTGGGTTCTAACCTGTTGCCT (site CACGATGCTAG),0.487
4,CATGATGCTTGGGTTCTAACCTGTTGCCT (site CAGGATGCTAG),0.00956
5,CATGATGCTTGGGTTCTAACCTGTTGCCT (site CATGATGCTAG),1.86
6,CATGCCGCTTGGGTTCTAACCTGTTGCCT (site CATGACACTAG),0.226
7,CATGCCGCTTGGGTTCTAACCTGTTGCCT (site CATGCCGCTAG),1.73
8,CATGGGCCTTGGGTTCTAACCTGTTGCCT (site CATGGGCCTAG),0.0279
9,CATGGGCCTTGGGTTCTAACCTGTTGCCT (site CCTGGGCCTAG),0.0246
10,CATGGGCCTTGGGTTCTAACCTGTTGCCT (site CGTGGGCCTAG),0.151
11,CATGGGCCTTGGGTTCTAACCTGTTGCCT (site CTTGGGCCTAG),0.174
12,CATGGGTCTTGGGTTCTAACCTGTTGCCT (site CATGGGTCTAG),1.45
13,CATGGGTCTTGGGTTCTAACCTGTTGCCT (site CCTGGGTCTAA),0.0946
14,CATTAACCTTGGGTTCTAACCTGTTGCCT (site CATTAACCTAG),1.15
15,CATTAACCTTGGGTTCTAACCTGTTGCCT (site TACTAACCTAG),0.208
16,CATTACTCTTGGGTTCTAACCTGTTGCTT (site CATTACTCTAA),0.622
17,CATTACTCTTGGGTTCTAACCTGTTGCTT (site CTTTCCTCTAA),0.032
18,CATTCACCTTGGGTTCTAACCTGTTGCCT (site AATTCACCTAG),0.153
19,CATTCACCTTGGGTTCTAACCTGTTGCCT (site CATTCACCTAG),0.39
20,CATTCACCTTGGGTTCTAACCTGTTGCCT (site GATTCACCTAG),0.0621
21,CATTCACCTTGGGTTCTAACCTGTTGCCT (site TATTCACCTAG),0.111
22,CATTTAGCTTGGGTTCTAACCTGTTGCGG (site AGGGCGCCTAA),0.0282

row,Sequence,recombinant barcode read abundance (log10)
1,CATTTAGCTTGGGTTCTAACCTGTTGCGG (site CATTTAGCTCC),1.06
2,CATTTCCCTTGGGTTCTAACCTGTTGCCT (site CATTTCCCTAA),0.0164
3,CATTTCCCTTGGGTTCTAACCTGTTGCCT (site CATTTCCCTAG),0.23
4,CCAAATCCTTGGGTTCTAACCTGTTGCAT (site CCAAATCCTAT),0.189
5,CCAAATCCTTGGGTTCTAACCTGTTGCAT (site TGTCTAGCTCC),0.697
6,CCAAGCACTTGGGTTCTAACCTGTTGCCT (site CCAAGCACTAG),0.624
7,CCAAGCACTTGGGTTCTAACCTGTTGCCT (site CCAAGCCCTAG),0.138
8,CCAAGCACTTGGGTTCTAACCTGTTGCCT (site CCAAGCGCTAG),0.0822
9,CCAAGCACTTGGGTTCTAACCTGTTGCCT (site CCAAGCTCTAG),0.172
10,CCAAGGCCTTGGGTTCTAACCTGTTGCCG (site CCAAGGCCTCG),0.0466
11,CCAAGGCCTTGGGTTCTAACCTGTTGCCG (site TTCGCATCTAA),0.208
12,CCAAGGGCTTGGGTTCTAACCTGTTGCGG (site CCAAGGGCTCA),0.628
13,CCAAGGGCTTGGGTTCTAACCTGTTGCGG (site CCAAGGGCTCC),2.52
14,CCAAGGGCTTGGGTTCTAACCTGTTGCGG (site CCAAGGGCTCG),0.094
15,CCAAGGGCTTGGGTTCTAACCTGTTGCGG (site CCAAGGGCTCT),2.18
16,CCAAGTACTTGGGTTCTAACCTGTTGCTT (site CCAAGTACTAA),0.387
17,CCAAGTACTTGGGTTCTAACCTGTTGCTT (site CCACGAACTAA),0.106
18,CCAATGTCTTGGGTTCTAACCTGTTGCGT (site CCAATGTCTAC),1.03
19,CCAATGTCTTGGGTTCTAACCTGTTGCGT (site GTTCGTCCTTG),0.047
20,CCACACACTTGGGTTCTAACCTGTTGCCT (site CAATACACTAG),0.0103
